# Assay results from publication PMC7497443, “Imaging CXCR4 Expression with Iodinated and Brominated Cyclam Derivatives” (Molecular Imaging and Biology, 2020).
# “Also recorded” adds a separate entry of the source. Like-named read-outs stand apart in the source and are kept apart here.
# Legend:
# HIV = settings: cited from earlier work
# CXCR4 = target: T1, CXCR4 (Homo sapiens, UniProt P61073); experiment: Competitive binding assay with U87-CXCR4 cells and 67Ga-Pentixafor; settings: U87-CXCR4 cells, 67Ga-Pentixafor 4.0 nM, 37 °C, 2 h, triplicate; read-out: IC50 affinity
# T1 construct: host or cells: U87 glioma cells transduced with CXCR4 (U87-CXCR4)
# T1 sequence (P61073 whole entry): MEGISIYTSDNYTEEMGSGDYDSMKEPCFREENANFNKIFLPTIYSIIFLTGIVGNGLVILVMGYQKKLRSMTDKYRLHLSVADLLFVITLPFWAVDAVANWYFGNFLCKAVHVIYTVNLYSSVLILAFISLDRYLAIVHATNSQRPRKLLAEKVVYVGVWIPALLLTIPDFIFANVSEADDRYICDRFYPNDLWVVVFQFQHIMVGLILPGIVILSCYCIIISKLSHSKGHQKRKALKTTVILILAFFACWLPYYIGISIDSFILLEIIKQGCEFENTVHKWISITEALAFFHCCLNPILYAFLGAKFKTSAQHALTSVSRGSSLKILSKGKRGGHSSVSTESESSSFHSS
# Procedure: In order to determine the affinity of the halogenated cyclam derivatives, competitive binding studies were performed with U87-CXCR4 cells using ^67Ga-Pentixafor (CXCR4 receptor ligand). Briefly, triplicate samples containing 0.5 × 10^6 cells pre-seeded in 6-well plate, about 1.8 kBq of ^67Ga-Pentixafor (4.0 nM) and 0.001–1000 nM of the tested ligands (total volume 1.0 ml) were incubated at 37 °C for 2 h. After incubation, the cells were washed with 2 × 1 ml of ice-cold tris-buffered saline (pH 7.4) and then collected for measurement with a WIZARD 1480 gamma counter (PerkinElmer, Waltham, MA). The IC50 values were estimated using a least squares fitting routine (GraphPad Prism 6, San Diego, CA, USA).
# Competitive binding assays were performed using U87-CXCR4 cells (expressing high levels of CXCR4) and ^67Ga-Pentixafor [31, 32] as a radioligand.
# [1] = test system: U87-CXCR4 and U87-WT glioma cells; experiment: Uptake of radiohalogenated cyclam derivatives in glioma cells; assay type: cell-based, human; settings: 2.0 h incubation at 37 °C
# Procedure: (§1) Glioma (U87-CXCR4 and U87-WT) and lung cancer (H82 and H69) cell lines with different level of CXCR4 expression were utilized for cell uptakes of all synthesized six radiotracers. Each cell line (0.25 × 10^6 per well) was seeded into 6-well plates, and on the next day, triplicate samples containing approximately 1.85 kBq of *Br or *I-labeled ligand were added and kept incubation at 37 °C for 2.0 h. After washing twice with PBS (4 °C) on the ice-bed, the cells were harvested for measurement with the gamma counter.
# (§2) The uptake of 6 different radiolabeled cyclam derivatives was studied in 4 glioma and lung cancer cell lines (Fig. 2). The cell lines expressed both “high” (U87-CXCR4 and H69) and “low” (U87-WT and H82) levels of CXCR4, which were confirmed with IHC staining of CXCR4. […] These promising results from in vitro studies supported proceeding to in vivo PET imaging of CXCR4 expression in tumor-bearing animal models, using the newly developed radiolabeled cyclam derivatives.
# [2] = test system: H69 and H82 lung cancer cells; experiment: Uptake of radiohalogenated cyclam derivatives in lung cancer cells; assay type: cell-based, human; settings: 2.0 h incubation at 37 °C
# Procedure: as §1, §2
# [3] = test system: U87-CXCR4, U87-WT, H69 and H82 s.c. tumors; experiment: Biodistribution in s.c. tumor-bearing animals 24 h after i.v. injection; assay type: in vivo, mice; settings: n = 3
# Procedure: All animal experiments were approved by the Institutional Animal Care and Utilization Committee of MSKCC. Eight human PCNSL xenograft models established at MSK (CG) were available for study. Female Athymic Nude Foxn (6–8 weeks old; ENVIGO) was used for subcutaneous implantation. Cancer cells, including U87-CXCR4, U87-WT, H69, and H82 (5 × 10^6 cells suspended in […] of cell culture medium/Matrigel [BD Bioscience] [v/v 5 1/1]), were inoculated to the shoulder/flank area of the animal. Twenty to 30 days after the inoculation, imaging and tissue sampling were performed when the tumor sizes were between 100 and 350 mm^3. For orthotopic models, U87-CXCR4 cells (1 × 10^5 cells suspended in 10 μl of cell culture medium) in 30-gauge needle were injected into the right frontal cortex (stereotactic coordinates: bregma + 1.7 mm (anterior), lateral − 0.5 mm (right), and at a depth of 2.5 mm). Individuals performing implantation and stereotactic injections were blinded to the experimental design. […]
# After the last PET imaging time point, the animals were euthanized for tissue dissection. […] The total injected radioactivity per animal was determined from the measured radioactivity in an aliquot of the injectate. Data were expressed as percent of injected dose per gram of tissue (%ID/g).
# U87-CXCR4 s.c. tumors = assay type: in vivo; settings: for accumulation in U87-CXCR4 s.c. tumors (in words): following i.v. injection; for in vivo de-halogenation / stability on PET imaging: thyroid radioactivity on PET images
# Procedure: All animal experiments were approved by the Institutional Animal Care and Utilization Committee of MSKCC. Eight human PCNSL xenograft models established at MSK (CG) were available for study. Female Athymic Nude Foxn (6–8 weeks old; ENVIGO) was used for subcutaneous implantation. Cancer cells, including U87-CXCR4, U87-WT, H69, and H82 (5 × 10^6 cells suspended in […] of cell culture medium/Matrigel [BD Bioscience] [v/v 5 1/1]), were inoculated to the shoulder/flank area of the animal. Twenty to 30 days after the inoculation, imaging and tissue sampling were performed when the tumor sizes were between 100 and 350 mm^3. For orthotopic models, U87-CXCR4 cells (1 × 10^5 cells suspended in 10 μl of cell culture medium) in 30-gauge needle were injected into the right frontal cortex (stereotactic coordinates: bregma + 1.7 mm (anterior), lateral − 0.5 mm (right), and at a depth of 2.5 mm). Individuals performing implantation and stereotactic injections were blinded to the experimental design.
# (§3) Animals were administrated 3.7–11.1 MBq of ^76Br- or ^124I-labeled ligands via tail vein or intraspinal injection under 2 % isoflurane anesthesia. At 1 h and 24 h after injection, PET/CT imaging (or PET imaging) was performed with an Inveon PET/CT system. The tumors were centered in the field of view, and the PET acquisition time was 10 min (or longer if needed, until 50 million events are recorded). The image data were normalized to correct for non-uniformity of response of the PET camera, dead-time count losses, positron branching ratio, and physical decay to the time of injection, but no attenuation, scatter, or partial-volume averaging correction was applied. The calibration factor of both PET scanner was measured with a mouse-size phantom composed of a cylinder uniformly filled with an aqueous solution of ^18F of known activity concentration. The acquired PET/CT (or PET) images were analyzed using Inveon Research Workplace v4.2 software (or ASIPro software). Region of interest (ROI) analysis of the acquired images was performed using ASIPro software (Siemens, Malvern, PA, USA), and the observed maximum pixel value (%ID/cc) was utilized to diminish partial volume effects of tumor. The sequential radioactivity measurements (% injected dose/cc) were plotted vs. time of acquisition.
# The imaging and uptake of 6 different radiolabeled cyclam derivatives were studied in subcutaneous tumor-bearing animals (animals bearing either 2 glioma or 2 glioma plus 2 lung cancer tumors) (Fig. 4). […] Radioactivity continued to increase in the U87-CXCR4 tumors but was washed out from the U87 wt (non-CXCR4-exressing) control tumors, over 60 min. […] Biodistribution studies confirmed the imaging studies. Comparing three radiolabeled cyclam derivatives, ^76Br-HZ270-1 was accumulated most avidly by U87-CXCR4 tumors and had the lowest overall systemic organ levels at 24 h post i.v. injection (Table 3). Brain radioactivity was lowest of all organs sampled. Based on these studies, ^76Br-HZ270-1 was selected for imaging intracranial CXCR4-expressing tumors.
# [4] = test system: intracranial U87-CXCR4 tumors; experiment: PET imaging of intracranial U87-CXCR4 xenografts; assay type: in vivo, mice; settings: i.v. injection
# Procedure: All animal experiments were approved by the Institutional Animal Care and Utilization Committee of MSKCC. Eight human PCNSL xenograft models established at MSK (CG) were available for study. Female Athymic Nude Foxn (6–8 weeks old; ENVIGO) was used for subcutaneous implantation. Cancer cells, including U87-CXCR4, U87-WT, H69, and H82 (5 × 10^6 cells suspended in […] of cell culture medium/Matrigel [BD Bioscience] [v/v 5 1/1]), were inoculated to the shoulder/flank area of the animal. Twenty to 30 days after the inoculation, imaging and tissue sampling were performed when the tumor sizes were between 100 and 350 mm^3. […]
# Animals were administrated 3.7–11.1 MBq of ^76Br- or ^124I-labeled ligands via tail vein or intraspinal injection under 2 % isoflurane anesthesia. […] The tumors were centered in the field of view, and the PET acquisition time was 10 min (or longer if needed, until 50 million events are recorded). […] The calibration factor of both PET scanner was measured with a mouse-size phantom composed of a cylinder uniformly filled with an aqueous solution of ^18F of known activity concentration. The acquired PET/CT (or PET) images were analyzed using Inveon Research Workplace v4.2 software (or ASIPro software). […] The sequential radioactivity measurements (% injected dose/cc) were plotted vs. time of acquisition. […]
# [5] = test system: intracranial PCNSL-15 CXCR4-expressing tumors; experiment: PET imaging and autoradiography of intracranial PCNSL-15 tumors; assay type: in vivo, mice
# Procedure: as §3, with “acquisition. […]” for “acquisition.”
Structure (SMILES),IC50 (CXCR4) [nM],"Biodistribution, Blood [3]","Biodistribution, Bone [3] [%ID/g]","Biodistribution, Brain [3] [%ID/g]","Biodistribution, Heart [3] [%ID/g]","Biodistribution, Kidneys [3] [%ID/g]","Biodistribution, Liver [3] [%ID/g]","Biodistribution, Spleen [3] [%ID/g]","Biodistribution, U87 CXCR4 tumor [3] [%ID/g]","Biodistribution, U87 WT tumor [3] [%ID/g]",also measured
c1cc(CN2CCCNCCNCCCNCC2)ccc1CN1CCCNCCNCCCNCC1 [AMD3100],–,–,–,–,–,–,–,–,–,–,"inhibited HIV infection, concentration range (HIV): 1 to 10 nM"
"c1ccc(CNCc2ccc(CN3CCCNCCNCCCNCC3)cc2)nc1 [AMD3465, reference compound]",15 ± 5.8,–,–,–,–,–,–,–,–,–,–
Brc1cc(CN2CCCNCCNCCCNCC2)ccc1CN1CCCNCCNCCCNCC1 [HZ261],9.47 ± 2.87,–,–,–,–,–,–,–,–,–,–
Ic1cc(CN2CCCNCCNCCCNCC2)ccc1CN1CCCNCCNCCCNCC1 [HZ262],15.9 ± 0.4,–,–,–,–,–,–,–,–,–,–
[76Br]c1cc(CNCc2ccccn2)ccc1CN1CCCNCCNCCCNCC1 [^76Br-HZ270-1],–,0.59 ± 0.12 %ID/g,2.9 ± 0.5,0.14 ± 0.04,1.7 ± 0.3,41.3 ± 24.1,7.6 ± 1.3,2.1 ± 0.8,9.5 ± 1.3,1.6 ± 0.7,"U87-CXCR4/U87-wt uptake ratio [1]: 2.96 ± 0.67; radiotracer accumulation in U87-CXCR4 vs U87-WT cells (in words) [1]: highest; H69/H82 uptake ratio [2]: 3.93 ± 0.74; radiotracer accumulation in H69 vs H82 cells (in words) [2]: highest; accumulation in U87-CXCR4 s.c. tumors (in words) (U87-CXCR4 s.c. tumors): accumulated highest; PET imaging of CXCR4 expression in intracranial U87-CXCR4 tumors [4]: unsuccessful; also recorded: Very low levels of radioactivity were visualized; localization of radioactivity after spinal-CSF injection ([5]; autoradiography with CXCR4 IHC and H&E, PET 1 and 24 h post injection): not localized to CXCR4-expressing tumor; PET imaging of CXCR4 expression in intracranial PCNSL #15 tumors ([5]; i.v. or spinal-CSF injection): unsuccessful"
[76Br]c1cc(CN2CCCNCCNCCCNCC2)ccc1CNCc1ccccn1 [^76Br-HZ270-2],–,1.6 ± 0.5 %ID/g,1.9 ± 0.6,0.53 ± 0.01,2.3 ± 0.4,53.7 ± 12.6,15.3 ± 3.5,2.5 ± 0.2,4.8 ± 1.6,1.5 ± 0.2,–
[124I]c1cc(CN2CCCNCCNCCCNCC2)ccc1CN1CCCNCCNCCCNCC1 [^124I-HZ262],–,–,–,–,–,–,–,–,–,–,in vivo de-halogenation / stability on PET imaging (U87-CXCR4 s.c. tumors): greater in vivo stability; in vivo de-halogenation / stability on PET imaging (U87-CXCR4 s.c. tumors; listed as 124I-AMD3100): no in vivo de-iodination
[124I]c1cc(CNCc2ccccn2)ccc1CN1CCCNCCNCCCNCC1 [^124I-HZ271-1],–,1.5 ± .05 %ID/g,0.99 ± 0.33,0.07 ± 0.04,2.0 ± 0.4,45.0 ± 5.7,30 ± 23,1.3 ± 0.7,2.0 ± 0.3,0.96 ± 0.21,"Biodistribution, H69 tumor [3]: 2.3 ± 0.2 %ID/g; Biodistribution, H82 tumor [3]: 1.1 ± 1.0 %ID/g; Biodistribution, Lungs [3]: 2.3 ± 1.4 %ID/g; in vivo de-halogenation / stability on PET imaging (U87-CXCR4 s.c. tumors): significant decomposition in vivo"
[131I]c1cc(CN2CCCNCCNCCCNCC2)ccc1CN1CCCNCCNCCCNCC1 [^131I-HZ262],–,–,–,–,–,–,–,–,–,–,U87-CXCR4/U87-wt uptake ratio [1]: 3.19 ± 1.02; radiotracer accumulation in U87-CXCR4 vs U87-WT cells (in words) [1]: highest; H69/H82 uptake ratio [2]: 3.81 ± 0.40; radiotracer accumulation in H69 vs H82 cells (in words) [2]: highest; accumulation in U87-CXCR4 s.c. tumors (in words) (U87-CXCR4 s.c. tumors): accumulated highest
